TGI and GI50 data for 27 compounds are collected here from PubChem BioAssay (NCI).

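Results reflect a 48-hour exposure of cells in 96-well plates to compound at five concentrations. Here, GI50 denotes the concentration required for 50% inhibition of growth. TGI: concentration producing complete growth inhibition.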

Experiment in all cases: DTP human tumour cell line panel, 48 h
The subject of assay [1] is DLD-1 colon.
Assay [2] concerns LXFL 529 NSCLC.
Assay [3] deals with DMS 273 small cell lung.
The test system of assay [4] is HOP-18 NSCLC.
In assay [5] the test system is M19-MEL melanoma.
Assay [6] has as its system MDA-N.
Assay [7] relates to HS 578T breast.
The subject of assay [8] is SNB-78 CNS.

For `Cc1nc2c(ccc3ncccc32)[nH]1`, the TGI in assay [1], in assay [2], in assay [3], in assay [4] and in assay [5] was > 100 µM throughout.

As to `Clc1ccccc1C(SCc1ccccc1)SCc1ccccc1`, the TGI in assay [6] is > 100 µM.

As for `OC1CSSC1Cn1cnc2c(Nc3ccc(OCc4cccc(F)c4)c(Cl)c3)ncnc21` (stereo unspecified), in assay [7], the GI50 was 5.28 µM and the TGI is 15 µM.

Regarding `Cc1c(C(=O)C/C(=N/NC(=O)c2ccccc2O)C(=O)Nc2ccccc2C(C)C)[n+](=O)c2ccccc2n1[O-]`, the TGI in assay [1], in assay [2], in assay [3], in assay [4], in assay [5] and in assay [8] was > 100 µM each time.

Turning to `Fc1[nH]nc2ccc([C@@H]3Nc4ccc5[nH]ncc5c4[C@H]4C5CCC(C5)[C@@H]34)cc12` (stereo partly specified), in assay [7], the GI50 is 1.4 µM and the TGI was determined as 13.6 µM.

Turning to `FC(F)(F)c1cccc(Nc2nc(-c3ccccc3)nc3ncccc23)c1`, in assay [7], the GI50 was 3.49 µM and the TGI came to 18.1 µM.

Take `NC(N)=NS(=O)(=O)c1ccc(Nc2c3ccccc3nc3c(C(=O)NCCO)cccc23)cc1`: the values for the GI50 in assay [6] and in assay [7] were 17.8 µM and 21.3 µM, respectively.

For `Cc1ccc(Cl)c2c(N=Nc3ccccc3[N+](=O)[O-])c(O)[nH]c12`, the figures for the TGI in assay [6] and in assay [7] were > 100 µM and 70.2 µM, respectively.

In the case of `COC1/C=C/OC2(C)Oc3c(C)c(O)c4c(O)c(c(/C=N/Nc5ccc([N+](=O)[O-])cc5[N+](=O)[O-])c(O)c4c3C2=O)NC(=O)C(C)=C/C=C/C(C)C(O)C(C)C(O)C(C)C(OC(C)=O)C1C` (stereo unspecified), in assay [7], the GI50 is 0.97 µM and the TGI came to 3.59 µM.

On to `CCN(CC)N=Nc1c(C(N)=O)n[nH]c1C`, for which, in assay [7], the TGI is > 100 µM.

With `CCCCCCCCCCCC(=O)OCCOCCOCCOCCOCCOCc1ccccc1`, the TGI in assay [1], in assay [2], in assay [3], in assay [4], in assay [5] and in assay [8] was > 100 µM in each case.

Take `COC(CCC[N+](C)(C)C)CC[N+](C)(C)C` (stereo unspecified): the TGI in assay [6] was > 100 µM.

For the compound `CCC[CH2][Sn]([CH2]CCC)([S]c1cccc2cccnc12)[S]c1cccc2cccnc12`, the GI50 in assay [1] is 0.172 µM; in assay [2], 0.039 µM; in assay [3] it was 0.177 µM; in assay [4], 0.264 µM; in assay [5] it was 0.216 µM; in assay [8], 0.203 µM. Also, the TGI in assay [1] turned out to be 0.382 µM; in assay [2], 0.163 µM; in assay [3] it was 0.432 µM; in assay [4] it was 0.605 µM; in assay [5], 0.587 µM; in assay [8], 0.825 µM.

Take `Cc1ccsc1C(=S)Nc1ccc(Cl)c(/C=N/OC(C)(C)C)c1`: the TGI in assay [6] and in assay [7] was > 100 µM each time.

`Nc1nc(-n2c(-c3ccccc3)nc3c(Br)cc(Br)cc3c2=O)nnc1-c1cccc(Cl)c1Cl`: in assay [7], the GI50 was 5.02 µM and the TGI amounted to 41 µM.

Consider `COC([CH2][Hg][n]1cnc2c1c(=O)n(C)c(=O)n2C)CN1C(=O)c2ccccc2S1(=O)=O` (stereo unspecified), for which the GI50 in assay [6] and in assay [7] was > 100 µM in each case. Besides, the TGI in assay [6] and in assay [7] was > 100 µM throughout.

Regarding `C=CCOc1ccc2c(C)cc(=O)oc2c1C`, the total growth inhibition concentration (TGI) in assay [6] was > 100 µM; in assay [7] it was 77.1 µM.

Consider `O=C1/C(=C/c2ccc(O)c(O)c2)CCC/C1=C\c1ccc(O)c(O)c1`, for which the TGI worked out at 7.22 µM in assay [1]; 14.6 µM in assay [6]; 7.2 µM in assay [3]; 10.4 µM in assay [4]; 12.3 µM in assay [5]; 8.19 µM in assay [8]. For the same compound, the TGI in assay [7] is > 39.9 µM.

Turning to `COC(=O)/C=C1\S/C(=N\NC(=O)c2cc3ccc2/C=C\c2ccc(cc2)/C=C\3)N(c2ccccc2)C1=O`, in assay [7], the GI50 is 3.49 µM and the TGI was > 100 µM.

With `CCOC(=O)CCC1(C(=O)OCC)CCCCC1=O` (stereo unspecified), the TGI in assay [1], in assay [2], in assay [3], in assay [4], in assay [5] and in assay [8] was > 100 µM throughout.

On to `CCN1/C(=C\c2cc[n+](CC)c3ccccc23)C=Cc2ccccc21`, for which, in assay [7], the GI50 was 0.33 µM and the TGI turned out to be 15.8 µM.

As to `COc1ccc2c(c1)sc1nc(-c3ccccc3)c(-c3cccc4ccccc34)n12`, in assay [7], the TGI is > 100 µM.

In the case of `CC(C)=CCC\C(C)=C/C=C/C(C)=C\C=C\C(C)=C/C=C/C=C(C)\C=C\C=C(C)/C=C/C=C(/C)CCC=C(C)C`, the TGI in assay [6] and in assay [7] was > 100 µM in each case.

With `CNC(=S)OCCC(C)CCCC(C)C` (stereo unspecified), the TGI worked out at 28.9 µM in assay [1]; 30.4 µM in assay [2]; 30.7 µM in assay [3]; 31.3 µM in assay [4]; 34.9 µM in assay [5]; 34.5 µM in assay [8].

`O=C1NC(=NCCc2cccc(F)c2)S/C1=C\c1ccc2ncccc2c1`: in assay [7], the GI50 was 10.6 µM and the TGI was > 25 µM.

As for `Cc1ccc2c(C)c3c(ccc4ccccc43)c[n+]2c1`, in assay [7], the GI50 was 4.37 µM and the TGI amounted to 22.3 µM.

`Cc1ccc(CN2CCC(C(=O)Nc3ccc(-c4cc5ccccc5[nH]4)cc3)CC2)o1`: in assay [7], the GI50 was 26.3 µM and the TGI was > 100 µM.

The term TGI denotes the concentration giving total growth inhibition. Read a high TGI as less potent growth arrest. By GI50 is commonly meant the concentration that inhibits growth by half.
